In PubChem BioAssay (NCI):
“And” between values parts separate entries of the source, which are not always exact repeats. Equal values may be shown once.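 Briefly, cells in 96-well plates were exposed to five compound concentrations for 48 h, and endpoints were estimated by linear interpolation. GI50 is the concentration that inhibits growth by half. TGI marks complete inhibition of growth.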

Legend:
Assay in all cases: NCI tumour cell line growth inhibition, 48 h; in the data active means GI50 below about 0.43 µM; inactive means the rest
[1] = system: SF-295 CNS
[2] = system: T-47D breast
[3] = system: A498 renal
[4] = system: OVCAR-3 ovarian
[5] = system: K-562 leukemia
[6] = system: RXF 393 renal
[7] = system: HT29 colon
[8] = system: OVCAR-5 ovarian
[9] = system: OVCAR-4 ovarian
[10] = system: SK-MEL-28 melanoma
[11] = system: NCI-H460 lung
[12] = system: MOLT-4 leukemia
[13] = system: CAKI-1 renal
[14] = system: SK-MEL-2 melanoma
[15] = system: SF-539 CNS
[16] = system: SNB-19 CNS
[17] = system: SNB-75 CNS
[18] = system: SW-620 colon
[19] = system: NCI-H23 lung
[20] = system: SF-268 CNS
[21] = system: DU-145 prostate
[22] = system: SN12C renal
[23] = system: IGROV1 ovarian
[24] = system: 786-0 renal
[25] = system: SR leukemia
[26] = system: SK-OV-3 ovarian
[27] = system: HCT-116 colon
[28] = system: BT-549 breast
[29] = system: PC-3 prostate
[30] = system: UO-31 renal
[31] = system: NCI-H226 lung
[32] = system: UACC-62 melanoma
[33] = system: TK-10 renal
[34] = system: LOX IMVI melanoma
[35] = system: M14 melanoma
[36] = system: MDA-MB-435
[37] = system: KM12 colon
[38] = system: NCI-H522 lung
[39] = system: HCC-2998 colon
[40] = system: NCI/ADR-RES ovarian
[41] = system: RPMI-8226 leukemia
[42] = system: HCT-15 colon
[43] = system: CCRF-CEM leukemia
[44] = system: MDA-MB-231 breast
[45] = system: A549 NSCLC
[46] = system: U251 CNS
[47] = system: SK-MEL-5 melanoma
[48] = system: OVCAR-8 ovarian
[49] = system: UACC-257 melanoma
[50] = system: EKVX NSCLC
[51] = system: COLO 205 colon
[52] = system: ACHN renal
[53] = system: MALME-3M melanoma
[54] = system: MCF7 breast
[55] = system: HS 578T breast
[56] = system: HL-60(TB) leukemia
[57] = system: HOP-62 NSCLC
[58] = system: HOP-92 NSCLC
[59] = system: MDA-N

COc1cccc(-n2ncc3c(N/N=C/c4ccncc4)ncnc32)c1
> 9.75 µM: TGI [47]
> 6.41 µM: TGI [55]
active: GI50 [3] 0.326 µM | GI50 [55] 0.322 µM
inactive: GI50 [1] 1.35 µM | GI50 [2] > 25 µM | GI50 [4] 1.9 µM | GI50 [5] 0.779 µM | GI50 [6] 0.672 µM | GI50 [7] 2.24 µM | GI50 [8] > 25 µM | GI50 [9] > 25 µM | GI50 [10] > 25 µM | GI50 [11] 2.57 µM | GI50 [12] > 25 µM | GI50 [13] 0.769 µM | GI50 [14] 4.33 µM | GI50 [15] 4.27 µM | GI50 [16] > 25 µM | GI50 [17] 2.48 µM | GI50 [18] 5.22 µM | GI50 [19] > 25 µM | GI50 [20] > 25 µM | GI50 [21] 4.55 µM | GI50 [22] 4.95 µM | GI50 [23] 7.95 µM | GI50 [24] 4.66 µM | GI50 [25] 2.12 µM | GI50 [26] 1.7 µM | GI50 [27] 2.8 µM | GI50 [28] > 25 µM | GI50 [29] > 17.1 µM | GI50 [30] 2.45 µM | GI50 [31] > 6.17 µM | GI50 [32] 4.28 µM | GI50 [33] 2.75 µM | GI50 [34] 1.01 µM | GI50 [35] 3.56 µM | GI50 [36] 1.46 µM | GI50 [37] 2.9 µM | GI50 [38] > 14.5 µM | GI50 [39] > 25 µM | GI50 [40] > 25 µM | GI50 [41] > 25 µM | GI50 [42] 3.57 µM | GI50 [43] > 13.4 µM | GI50 [44] 3.51 µM | GI50 [45] > 14.5 µM | GI50 [46] 1.1 µM | GI50 [47] 0.799 µM | GI50 [48] 4.88 µM | GI50 [49] > 25 µM | GI50 [50] > 25 µM | GI50 [51] 11.5 µM | GI50 [52] 0.985 µM | GI50 [53] > 25 µM | GI50 [54] > 12.2 µM | GI50 [56] 8.66 µM | GI50 [57] > 25 µM | GI50 [58] > 25 µM
> 25 µM: TGI [1] | TGI [2] | TGI [4] | TGI [5] | TGI [6] | TGI [7] | TGI [8] | TGI [9] | TGI [10] | TGI [11] | TGI [12] | TGI [13] | TGI [14] | TGI [15] | TGI [16] | TGI [17] | TGI [18] | TGI [19] | TGI [20] | TGI [21] | TGI [22] | TGI [23] | TGI [24] | TGI [25] | TGI [26] | TGI [27] | TGI [28] | TGI [29] | TGI [30] | TGI [31] | TGI [32] | TGI [33] | TGI [34] | TGI [35] | TGI [36] | TGI [37] | TGI [38] | TGI [39] | TGI [40] | TGI [41] | TGI [42] | TGI [43] | TGI [44] | TGI [45] | TGI [46] | TGI [48] | TGI [49] | TGI [50] | TGI [51] | TGI [52] | TGI [53] | TGI [54] | TGI [56] | TGI [57] | TGI [58]

COC(=O)c1cc2ccc(OC(C)=O)c(OC(C)=O)c2cn1
32.7 µM: TGI [27]
29.2 µM: TGI [49]
31.9 µM: TGI [18]
34.5 µM: TGI [38]
39 µM: TGI [42]
7.32 µM and 3.75 µM: TGI [5]
39.7 µM: TGI [11]
6 µM and 35.5 µM: TGI [54]
inactive: GI50 [1] 42.1 µM | GI50 [59] 2.03 µM | GI50 [5] 1.86 µM | GI50 [12] 2.22 µM | GI50 [18] 13.4 µM | GI50 [22] 6.91 µM | GI50 [32] 16.3 µM | GI50 [40] 27.3 µM | GI50 [44] 17.7 µM | GI50 [46] 12.7 µM | GI50 [48] 10.1 µM | GI50 [53] 11.5 µM | GI50 [54] 16.7 µM | GI50 [56] 1.63 µM
34.2 µM: TGI [8]
38.1 µM: TGI [50]
30 µM: TGI [30]
2.93 µM and 3.68 µM: TGI [59]
33.8 µM: TGI [15]
7.12 µM and 42.9 µM: TGI [44]
48.7 µM: TGI [3]
33.9 µM: TGI [23]
30.9 µM: TGI [4]
32.4 µM: TGI [58]
34.3 µM: TGI [10] | TGI [35]
6.98 µM: TGI [25]
36.8 µM: TGI [19]
28.2 µM: TGI [46]
22.2 µM: TGI [48]
76.3 µM: TGI [21]
6.54 µM and 4.28 µM: TGI [12]
43 µM: TGI [45]
36.3 µM: TGI [51]
42 µM: TGI [17]
53 µM: TGI [20]
3.16 µM and 3.26 µM: TGI [36]
24 µM: TGI [53]
41.7 µM: TGI [31]
33 µM: TGI [24]
50.9 µM: TGI [29]
8.21 µM and 3.8 µM: TGI [56]
33.6 µM: TGI [37]
44.6 µM: TGI [39]
34.9 µM: TGI [33]
30.6 µM: TGI [9]
52.4 µM: TGI [26]
52.6 µM: TGI [7]
36.7 µM: TGI [14]
21.3 µM: TGI [22]
5.57 µM: TGI [43]
31.5 µM: TGI [52]
30.3 µM: TGI [47]
70 µM: TGI [40]
42.7 µM: TGI [57]
5.8 µM and 35.1 µM: TGI [32]
3.63 µM and 2.6 µM: TGI [34]
4.91 µM: TGI [41]
33.4 µM: TGI [6]
35.9 µM: TGI [13]
